These results are taken from publication PMC5571044 (Scientific Reports, 2017).

The target in one test is PB2long N510T mutant. It counts as binding, influenza A/Udorn/307/1972(H3N2).
The test system of test [1] is FluA Udorn replicon with PB2 N510T. Format: cell-based, influenza A/H3N2/Udorn/72 in 293 T cells.

Consider `O=C(O)[C@H]1C2CCC(CC2)[C@@H]1Nc1nc(-c2c[nH]c3ncc(F)cc23)ncc1F` [VX-787], for which the “KD fold change, PB2long N510T” value on PB2long N510T mutant worked out at 90 fold. Moreover, in test [1], the “fold loss of cellular EC50, N510T vs WT replicon” value was found to be 90 fold.
